Source: US9045423B2, “Prophylactic and/or therapeutic agent for anemia comprising tetrahydroquinoline compound as active ingredient” (KOWA COMPANY, LTD., priority 2009, dated 2015)

Test system: K562 cells, a human proerythroblast cell line
Assay: Hemoglobin production in K562 cells (fluorescence of the porphyrin ring)
Assay type: cell-based
Settings: for enhancement of hemoglobin production: drug concentration 20 μM; for activity at 6 µM: Homo sapiens, K562, 144 h, 6 μM test compound, 3 + 3 days incubation, non-stimulated state without compound = 100, read-out: amount of hemoglobin, % of control (6 μM)
Protocol: K562 cells (obtained from ATCC), which is a human proerythroblast cell line, were inoculated at a concentration of 1×10^5 cells/1 mL in each well of a 24-well plate, using complete medium (RPMI-1640 medium containing 10% bovine fetal serum), and 1 μL of a test compound at a 1000-fold concentration was added to each well. Subsequently, the cells were incubated for 3 days in a CO2 incubator (37° C., 5% CO2). The medium was exchanged, and the cells were further incubated for 3 days. The cells were collected and counted. Subsequently, the amount of hemoglobin produced in the cells was determined by adjusting the number of cells to 3×10^5 cells, and measuring the fluorescence of the porphyrin ring. That is, the cells collected by centrifugation were suspended in 500 μL of 2 M oxalic acid, and were heated to boil for 30 minutes. The cells were cooled, and then the fluorescence intensity was measured by using a fluorescence microplate reader (Spectra MAX GeminiEM; Molecular Devices Corp.) ([…]). The amount of hemoglobin in a non-stimulated state where no compound was added was designated as 100-, and the amount of hemoglobin (% of control) produced as induced by each of the compounds was determined.

| SMILES | enhancement of hemoglobin production [%] | activity at 6 µM [%] |
| --- | --- | --- |
| CC(=O)N1c2c(F)cccc2[C@H](Nc2ccccc2F)C[C@@H]1C (relative stereo) [Compound 4, 1-Acetyl-8-fluoro-4-[(2-fluoro-phenyl)amino]-2-methyl-1,2,3,4-tetrahydroquinoline] | 162 | – |
| CC(=O)N1c2ccccc2[C@H](OCc2ccccc2)C[C@@H]1C (relative stereo) [Compound 36, 1-Acetyl-2-methyl-4-benzyloxy-1,2,3,4-tetrahydroquinoline] | 143 | – |
| CC(=O)N1c2ccc(C(N)=O)cc2[C@H](Nc2ccc(NS(C)(=O)=O)cc2)C[C@@H]1C (relative stereo) [Compound 102, 1-Acetyl-4-[(4-methanesulfonyl-aminophenyl)amino]-2-methyl-1,2,3,4-tetrahydroquinoline-6-carbox-amide] | 115 | – |
| CC(=O)N1c2c(Br)cccc2C(Nc2ccccc2)CC1C (stereo not shown) [Compound 63, 1-Acetyl-8-bromo-4-phenylamino-2-methyl-1,2,3,4-tetrahydroquino-line] | 260 | – |
| CC(=O)N1c2ccc(NS(C)(=O)=O)cc2C(Nc2ccc(N3CCOCC3)cc2)CC1C (stereo not shown) [Compound 98, 1-Acetyl-6-methanesulfonylamino-2-methyl-4-[(4-morpholinophenyl)-amino]-1,2,3,4-tetrahydroquin-oline] | 142 | – |
| CCOC(=O)Cc1ccc(NC2CC(C)N(C(C)=O)c3ccc(NS(C)(=O)=O)cc32)cc1 (stereo not shown) [Compound 99, 1-Acetyl-6-methanesulfonylamino-2-methyl-4-[(4-ethoxycarbonyl-methylphenyl)amino]-1,2,3,4-tetra-hydroquinoline] | 306 | – |
| CC(=O)N1c2ccc(N3CCN(C(=O)C(C)C)CC3)cc2C(Nc2ccc(NS(C)(=O)=O)cc2)CC1C (stereo not shown) [Compound 111, 1-Acetyl-6-[(4-isopropylcarbonyl)-piperazino]-4-[(4-methanesulfonyl-aminophenyl)amino]-2-methyl-1,2,3,4-tetrahydroquinoline] | 171 | – |
| CC(=O)N1c2ccc(C(=O)O)cc2C(Oc2ccc(N3CCOCC3)cc2)CC1C (stereo not shown) [Compound 139, 1-Acetyl-2-methyl-4-(4-morpho-linophenoxy)-1,2,3,4-tetrahydro-quinoline-6-carboxylic acid] | – | 193 |
| CC(=O)N1c2ccc(C(=O)O)cc2C(Oc2ccc(Cl)cc2)CC1C (stereo not shown) [Compound 141, 1-Acetyl-4-(4-chlorophenoxy)-2-methyl-1,2,3,4-tetrahydro-quinoline-6-carboxylic acid] | – | 209 |
| CC(=O)N1c2ccc(C(=O)NCCOCCOCCOCCC(=O)OC(C)(C)C)cc2C(Nc2ccc(Cl)cc2)CC1C (stereo not shown) [Compound 148, Tert-butyl 12-{1-Acetyl-4-[(4-chlorophenyl)-amino]-2-methyl-1,2,3,4-tetrahydroquinoline-6-carboxamido}-4,7,10-trioxadodecanoate] | – | 506 |
| COC(=O)CCCc1ccc(NC(=O)c2ccc3c(c2)C(Nc2ccc(Cl)cc2)CC(C)N3C(C)=O)cc1 (stereo not shown) [Compound 150, Methyl 4-{4-{1-Acetyl-4-[(4-chlorophenyl)-amino]-2-methyl-1,2,3,4-tetrahydroquinoline-6-carboxamido}-phenyl}butanoate] | – | 534 |
| CCOC(=O)c1ccc2c(c1)C(Nc1ccc(C3CCOCC3)cc1)CC(C)N2C(C)=O (stereo not shown) [Compound 153, Ethyl 1-acetyl-2-methyl-4-{[4-(tetrahydro-2H-pyran-4-yl)-phenyl]amino}-1,2,3,4-tetrahydroquinoline-6-carboxylate] | – | 294 |
| CNC(=O)c1ccc2c(c1)C(Nc1ccc(C3CCOCC3)cc1)CC(C)N2C(C)=O (stereo not shown) [Compound 155, 1-Acetyl-N,2-dimethyl-4-{[4-(tetrahydro-2H-pyran-4-yl)phenyl]amino}-1,2,3,4-tetrahydroquino-line-6-carboxamide] | – | 387 |
